# Patent US20180074053A1 (priority 2016, published 2018)
# Like-named read-outs stand apart in the source and are kept apart here.
# Experiments:
# GPCR109a = GPCR109a (Homo sapiens, UniProt Q8TDS4); assay: cell-based
# Protocol: (§1) The platform uses ChemiScreen GPCR stable cell lines that are used for real-time calcium flux assays to rapidly, screen a spectrum of GPCRs. […] Percentage activation values were determined upon initial addition of compound(s). Percentage activation and inhibition values were determined for each GPCR relative to the reference compounds.
# (§2) Assays were performed according to the manufacturer's instructions. […] The assay plate was read by the FLIPR TETRA® (Molecular Devices, Sunnyvale, Calif.). All assay plate data were subjected to appropriate baseline corrections and the maximum fluorescence values were processed to calculate percentage activation (relative to ECmax reference agonist and vehicle control values).
# NK2 = NK2 (Homo sapiens, UniProt P21452); assay: cell-based
# Protocol: as §1, §2
# MC5 = MC5 (Homo sapiens, UniProt P33032); assay: cell-based
# Protocol: as §1, §2
# NK1 = NK1 (Homo sapiens, UniProt P25103); assay: cell-based
# Protocol: as §1, §2
# MRGD = MRGD (Homo sapiens, UniProt Q8TDS7); assay: cell-based
# Protocol: as §1, §2
# MRGX1 = MRGX1 (Homo sapiens, UniProt Q96LB2); assay: cell-based
# Protocol: as §1, §2
# MC4 = MC4 (Homo sapiens, UniProt P32245); assay: cell-based
# Protocol: as §1, §2
# MC2 = MC2 (Homo sapiens, UniProt Q01718); assay: cell-based
# Protocol: as §1, §2
# NMUR2 = NMUR2 (Homo sapiens, UniProt Q9GZQ4); assay: cell-based
# Protocol: as §1, §2
# NMUR1 = NMUR1 (Homo sapiens, UniProt Q9HB89); assay: cell-based
# Protocol: as §1, §2
# MCHR1 = MCHR1 (Homo sapiens, UniProt Q99705); assay: cell-based
# Protocol: as §1, §2
# NOP = NOP (Homo sapiens, UniProt P41146); assay: cell-based
# Protocol: as §1, §2
# [1] = test system: C57/BL/6J mice and diabetic mouse models; settings: previous studies (Zhang 2013; U.S. Pat. No. 8,664,177); cited from earlier work
# STC-1 cells = assay: GLP-1 secretion from STC-1 cells (ELISA); assay type: cell-based, mouse; settings: 2 hours, DMEM without serum and glucose; FIG. 3
# Protocol: The pathways and sites of action of H89 and U73122 are graphically represented in FIG. 2.
# Supernatants were collected for GLP-1 measurement. and the GLP-1 concentration was measured using a total GLP-1 (7-36 and 9-36) ELISA kit according to manufacturer's instruction (Alpco. Salem, N.H.).
# MrgprD^−/− (KO) mice = settings: 0.5 mg/g with 2 mg/g glucose oral; P<0.05 KO vs. WT
# Protocol: (§3) The mice were fasted overnight and their fasting glucose levels were measured. […] Blood glucose levels were measured at 30, 60, 90 and 120 minutes after glucose loading.
# as §3
# [2] = read-out: percent activation compared to standards, DT-110 @ 1.25 mM, Avg.
# [3] = read-out: percent activation compared to standards, DT-110 @ 1.25 mM, n1
# [4] = read-out: percent activation compared to standards, DT-110 @ 1.25 mM, n2
# [5] = read-out: percent activation compared to standards, DT-110 @ 12.5 mM, Avg.
# [6] = read-out: percent activation compared to standards, DT-110 @ 12.5 mM, n1
# [7] = read-out: percent activation compared to standards, DT-110 @ 12.5 mM, n2
# NK1, sequence (P25103 whole entry): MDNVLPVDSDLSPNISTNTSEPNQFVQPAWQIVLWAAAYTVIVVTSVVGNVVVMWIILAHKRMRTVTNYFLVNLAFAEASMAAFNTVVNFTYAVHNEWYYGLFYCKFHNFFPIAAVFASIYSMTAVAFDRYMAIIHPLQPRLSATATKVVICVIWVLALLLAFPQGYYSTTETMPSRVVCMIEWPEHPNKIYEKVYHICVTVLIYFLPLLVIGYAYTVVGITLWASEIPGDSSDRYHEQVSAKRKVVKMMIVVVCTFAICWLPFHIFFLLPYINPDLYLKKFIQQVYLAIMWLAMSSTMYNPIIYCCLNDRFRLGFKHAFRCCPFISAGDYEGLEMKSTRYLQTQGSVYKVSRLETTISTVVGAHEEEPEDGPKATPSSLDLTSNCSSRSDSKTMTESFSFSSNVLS
# MCHR1, sequence (Q99705 whole entry): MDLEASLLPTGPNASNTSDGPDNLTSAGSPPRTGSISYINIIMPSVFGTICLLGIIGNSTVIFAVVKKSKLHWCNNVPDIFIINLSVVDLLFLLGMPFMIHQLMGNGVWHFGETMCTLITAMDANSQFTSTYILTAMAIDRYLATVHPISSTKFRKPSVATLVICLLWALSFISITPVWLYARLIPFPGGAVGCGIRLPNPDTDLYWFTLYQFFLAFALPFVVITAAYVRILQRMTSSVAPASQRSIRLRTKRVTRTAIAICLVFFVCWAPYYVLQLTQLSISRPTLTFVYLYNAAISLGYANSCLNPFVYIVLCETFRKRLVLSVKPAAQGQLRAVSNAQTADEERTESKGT
# NMUR1, sequence (Q9HB89 whole entry): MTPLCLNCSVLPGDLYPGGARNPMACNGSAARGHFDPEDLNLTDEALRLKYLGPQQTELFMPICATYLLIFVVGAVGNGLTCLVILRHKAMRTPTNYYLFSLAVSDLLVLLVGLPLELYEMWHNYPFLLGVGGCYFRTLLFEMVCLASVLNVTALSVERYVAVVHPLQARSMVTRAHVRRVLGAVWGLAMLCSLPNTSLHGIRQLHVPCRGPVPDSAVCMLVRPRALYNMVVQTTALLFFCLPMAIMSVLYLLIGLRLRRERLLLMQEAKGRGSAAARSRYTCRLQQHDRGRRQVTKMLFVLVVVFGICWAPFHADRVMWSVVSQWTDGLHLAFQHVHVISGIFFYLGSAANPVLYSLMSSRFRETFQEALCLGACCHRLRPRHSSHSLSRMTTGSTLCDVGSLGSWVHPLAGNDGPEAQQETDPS
# NMUR2, sequence (Q9GZQ4 whole entry): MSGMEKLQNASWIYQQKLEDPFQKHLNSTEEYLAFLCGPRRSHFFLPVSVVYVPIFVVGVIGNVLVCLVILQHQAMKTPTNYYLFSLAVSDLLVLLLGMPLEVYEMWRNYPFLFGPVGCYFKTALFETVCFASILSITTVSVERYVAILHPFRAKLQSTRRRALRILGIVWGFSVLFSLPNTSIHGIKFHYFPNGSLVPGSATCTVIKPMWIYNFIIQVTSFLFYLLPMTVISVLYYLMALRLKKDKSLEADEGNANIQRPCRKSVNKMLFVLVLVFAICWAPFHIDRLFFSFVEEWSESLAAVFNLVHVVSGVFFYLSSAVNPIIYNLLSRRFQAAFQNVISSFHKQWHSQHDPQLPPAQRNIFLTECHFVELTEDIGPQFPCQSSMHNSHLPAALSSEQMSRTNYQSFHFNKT
# MC2, sequence (Q01718 whole entry): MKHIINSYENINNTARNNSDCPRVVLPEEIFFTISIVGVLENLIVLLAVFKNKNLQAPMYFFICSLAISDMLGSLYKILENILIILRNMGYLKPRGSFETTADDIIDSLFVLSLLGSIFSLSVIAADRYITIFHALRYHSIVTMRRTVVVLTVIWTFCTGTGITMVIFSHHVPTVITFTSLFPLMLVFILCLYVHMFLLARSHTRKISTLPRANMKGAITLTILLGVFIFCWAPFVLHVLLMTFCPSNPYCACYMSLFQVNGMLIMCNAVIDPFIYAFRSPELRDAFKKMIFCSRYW
# MC2, sequence (Q8TCY5 whole entry partner): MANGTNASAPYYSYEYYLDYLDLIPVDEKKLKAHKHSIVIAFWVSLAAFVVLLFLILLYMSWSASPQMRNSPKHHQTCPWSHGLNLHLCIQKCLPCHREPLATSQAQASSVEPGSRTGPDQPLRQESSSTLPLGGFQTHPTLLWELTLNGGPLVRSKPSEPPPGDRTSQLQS
# MC5, sequence (P33032 whole entry): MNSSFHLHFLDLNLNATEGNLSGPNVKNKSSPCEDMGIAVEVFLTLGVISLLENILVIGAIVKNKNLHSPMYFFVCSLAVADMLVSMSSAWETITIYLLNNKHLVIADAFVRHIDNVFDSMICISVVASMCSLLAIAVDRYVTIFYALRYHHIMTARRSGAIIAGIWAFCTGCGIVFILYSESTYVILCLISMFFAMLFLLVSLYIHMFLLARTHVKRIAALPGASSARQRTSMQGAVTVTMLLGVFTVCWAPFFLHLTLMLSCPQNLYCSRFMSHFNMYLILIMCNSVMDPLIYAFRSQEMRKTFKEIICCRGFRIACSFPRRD
# MC4, sequence (P32245 whole entry): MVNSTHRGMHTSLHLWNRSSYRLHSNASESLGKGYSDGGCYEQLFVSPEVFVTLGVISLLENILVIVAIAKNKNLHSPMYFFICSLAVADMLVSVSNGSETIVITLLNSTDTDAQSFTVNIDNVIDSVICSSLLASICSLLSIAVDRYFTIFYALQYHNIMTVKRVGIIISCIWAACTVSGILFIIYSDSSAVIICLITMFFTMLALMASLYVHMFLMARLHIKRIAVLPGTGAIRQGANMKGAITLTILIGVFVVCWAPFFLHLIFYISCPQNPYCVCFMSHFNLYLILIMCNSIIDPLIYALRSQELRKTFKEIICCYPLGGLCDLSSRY
# NK2, sequence (P21452 whole entry): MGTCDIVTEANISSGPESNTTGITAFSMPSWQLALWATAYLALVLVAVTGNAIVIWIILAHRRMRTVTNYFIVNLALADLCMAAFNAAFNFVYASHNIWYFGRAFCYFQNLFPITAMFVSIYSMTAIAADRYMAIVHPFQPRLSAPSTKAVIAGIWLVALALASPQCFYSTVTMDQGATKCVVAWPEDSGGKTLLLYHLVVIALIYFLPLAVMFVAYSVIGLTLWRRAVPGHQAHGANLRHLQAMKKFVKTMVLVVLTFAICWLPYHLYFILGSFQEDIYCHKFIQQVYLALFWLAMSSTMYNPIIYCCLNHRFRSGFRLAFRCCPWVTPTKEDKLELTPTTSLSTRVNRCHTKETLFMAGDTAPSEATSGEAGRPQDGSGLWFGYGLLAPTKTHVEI
# NOP, sequence (P41146 whole entry): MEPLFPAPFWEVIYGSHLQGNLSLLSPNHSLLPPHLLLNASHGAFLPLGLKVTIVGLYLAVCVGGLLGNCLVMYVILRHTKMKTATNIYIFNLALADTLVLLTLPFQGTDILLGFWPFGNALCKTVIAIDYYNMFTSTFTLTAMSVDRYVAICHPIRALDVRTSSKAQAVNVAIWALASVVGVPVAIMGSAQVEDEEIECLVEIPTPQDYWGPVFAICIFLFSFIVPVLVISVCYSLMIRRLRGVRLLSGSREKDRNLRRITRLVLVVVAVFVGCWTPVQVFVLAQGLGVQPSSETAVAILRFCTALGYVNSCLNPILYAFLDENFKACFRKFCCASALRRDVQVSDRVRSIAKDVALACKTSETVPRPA
# MRGX1, sequence (Q96LB2 whole entry): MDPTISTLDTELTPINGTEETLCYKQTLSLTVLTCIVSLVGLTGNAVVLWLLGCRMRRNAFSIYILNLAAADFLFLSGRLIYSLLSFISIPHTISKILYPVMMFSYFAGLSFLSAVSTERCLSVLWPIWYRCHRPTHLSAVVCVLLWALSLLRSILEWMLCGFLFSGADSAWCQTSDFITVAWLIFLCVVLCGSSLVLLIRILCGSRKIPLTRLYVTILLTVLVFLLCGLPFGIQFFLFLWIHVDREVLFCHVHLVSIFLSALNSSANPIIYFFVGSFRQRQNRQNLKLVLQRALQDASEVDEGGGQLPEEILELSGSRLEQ
# MRGD, sequence (Q8TDS7 whole entry): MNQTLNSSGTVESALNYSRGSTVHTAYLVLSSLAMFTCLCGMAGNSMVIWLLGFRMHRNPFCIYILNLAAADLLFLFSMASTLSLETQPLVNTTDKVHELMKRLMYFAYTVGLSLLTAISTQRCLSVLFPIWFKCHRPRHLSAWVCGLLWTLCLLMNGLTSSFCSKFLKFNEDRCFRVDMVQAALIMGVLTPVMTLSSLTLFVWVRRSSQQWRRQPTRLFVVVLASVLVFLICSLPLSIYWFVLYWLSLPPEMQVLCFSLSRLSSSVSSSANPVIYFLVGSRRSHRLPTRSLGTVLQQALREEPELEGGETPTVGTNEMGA
# GPCR109a, sequence (Q8TDS4 whole entry): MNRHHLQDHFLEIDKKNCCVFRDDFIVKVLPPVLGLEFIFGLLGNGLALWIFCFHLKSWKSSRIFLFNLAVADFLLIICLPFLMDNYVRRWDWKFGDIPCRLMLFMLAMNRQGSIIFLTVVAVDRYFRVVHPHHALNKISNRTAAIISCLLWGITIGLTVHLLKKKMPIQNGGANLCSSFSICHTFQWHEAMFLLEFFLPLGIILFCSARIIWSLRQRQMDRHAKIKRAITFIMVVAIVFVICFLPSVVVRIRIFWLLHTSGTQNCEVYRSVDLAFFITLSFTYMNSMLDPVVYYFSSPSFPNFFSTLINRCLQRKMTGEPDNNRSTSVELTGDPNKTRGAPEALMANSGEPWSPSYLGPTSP
smiles,measurement,setting,value
CC(C)C[C@@H](NC(=O)CNC(=O)CN)C(=O)O,activation at 1250 µM,GPCR109a; [2],-8.1%
same,activation at 1250 µM,GPCR109a; [3],-8.1%
same,activation at 1250 µM,GPCR109a; [4],-8%
same,activation at 12500 µM,GPCR109a; [5],54.3%
same,activation at 12500 µM,GPCR109a; [6],52.9%
same,activation at 12500 µM,GPCR109a; [7],55.7%
same,activation at 1250 µM,NK2; [2],-9.5%
same,activation at 1250 µM,NK2; [3],-9.4%
same,activation at 1250 µM,NK2; [4],-9.6%
same,activation at 12500 µM,NK2; [5],-9.6%
same,activation at 12500 µM,NK2; [6],-9.5%
same,activation at 12500 µM,NK2; [7],-9.7%
same,activation at 1250 µM,MC5; [2],0%
same,activation at 1250 µM,MC5; [3],0.7%
same,activation at 1250 µM,MC5; [4],-0.8%
same,activation at 12500 µM,MC5; [5],-0.3%
same,activation at 12500 µM,MC5; [6],-0.6%
same,activation at 12500 µM,MC5; [7],0%
same,activation at 1250 µM,NK1; [2],-0.9%
same,activation at 1250 µM,NK1; [3],-1%
same,activation at 1250 µM,NK1; [4],-0.9%
same,activation at 12500 µM,NK1; [5],-1.1%
same,activation at 12500 µM,NK1; [6],-1%
same,activation at 12500 µM,NK1; [7],-1.1%
same,activation at 1250 µM,MRGD; [2],69.2%
same,activation at 1250 µM,MRGD; [3],76.5%
same,activation at 1250 µM,MRGD; [4],62%
same,activation at 12500 µM,MRGD; [5],64.5%
same,activation at 12500 µM,MRGD; [6],60.7%
same,activation at 12500 µM,MRGD; [7],68.3%
same,activation at 1250 µM,MRGX1; [2],-1.9%
same,activation at 1250 µM,MRGX1; [3],-1.3%
same,activation at 1250 µM,MRGX1; [4],-2.5%
same,activation at 12500 µM,MRGX1; [5],-6.6%
same,activation at 12500 µM,MRGX1; [6],-6.7%
same,activation at 12500 µM,MRGX1; [7],-6.6%
same,activation at 1250 µM,MC4; [2],-0.5%
same,activation at 1250 µM,MC4; [3],3%
same,activation at 1250 µM,MC4; [4],-4%
same,activation at 12500 µM,MC4; [5],3.4%
same,activation at 12500 µM,MC4; [6],-0.2%
same,activation at 12500 µM,MC4; [7],7%
same,activation at 1250 µM,MC2; [2],-0.7%
same,activation at 1250 µM,MC2; [3],0.6%
same,activation at 1250 µM,MC2; [4],-2%
same,activation at 12500 µM,MC2; [5],-1%
same,activation at 12500 µM,MC2; [6],-1%
same,activation at 12500 µM,MC2; [7],-0.9%
same,activation at 1250 µM,NMUR2; [2],2.4%
same,activation at 1250 µM,NMUR2; [3],0.9%
same,activation at 1250 µM,NMUR2; [4],3.9%
same,activation at 12500 µM,NMUR2; [5],-0.9%
same,activation at 12500 µM,NMUR2; [6],0.4%
same,activation at 12500 µM,NMUR2; [7],-2.2%
same,activation at 1250 µM,NMUR1; [2],0.5%
same,activation at 1250 µM,NMUR1; [3],1.3%
same,activation at 1250 µM,NMUR1; [4],-0.4%
same,activation at 12500 µM,NMUR1; [5],-0.1%
same,activation at 12500 µM,NMUR1; [6],-0.7%
same,activation at 12500 µM,NMUR1; [7],0.5%
same,activation at 1250 µM,MCHR1; [2],0.4%
same,activation at 1250 µM,MCHR1; [3],0.2%
same,activation at 1250 µM,MCHR1; [4],0.7%
same,activation at 12500 µM,MCHR1; [5],-0.1%
same,activation at 12500 µM,MCHR1; [6],-0.5%
same,activation at 12500 µM,MCHR1; [7],0.3%
same,activation at 1250 µM,NOP; [2],-0.1%
same,activation at 1250 µM,NOP; [3],-7.8%
same,activation at 1250 µM,NOP; [4],7.6%
same,activation at 12500 µM,NOP; [5],-2.3%
same,activation at 12500 µM,NOP; [6],3.4%
same,activation at 12500 µM,NOP; [7],-8%
same,blood glucose,[1],lower blood glucose
same,release of GLP-1 by STC-1 cells,STC-1 cells,stimulated significant release of GLP-1
same,reduction of blood glucose levels in KO mice compared with WT mice (OGTT),MrgprD^−/− (KO) mice,significantly impaired
